From the supplement of paper PMC13207355
Structures can show the parent of a compound that is named as a salt.

Tests used:
Conditions in all cases: exposure time: 72 h
[1] = tested on: E13 (patient-derived glioblastoma stem cells of classical subtype); experiment: surviving fraction (nuclei count normalised to DMSO); higher = more cells surviving (less toxic)
[2] = tested on: E21 (patient-derived glioblastoma stem cells of mesenchymal subtype); experiment: as above
[3] = tested on: E28 (patient-derived glioblastoma stem cells of classical subtype); experiment: as above
[4] = tested on: E31 (patient-derived glioblastoma stem cells of proneural subtype); experiment: as above
[5] = tested on: E34 (patient-derived glioblastoma stem cells of proneural subtype); experiment: as above
[6] = tested on: E57 (patient-derived glioblastoma stem cells of mesenchymal subtype); experiment: as above
[7] = tested on: FT3469 (normal neural stem cell line); experiment: as above
[8] = tested on: E13; experiment: phenotypic distance (Euclidean, principal components) from DMSO controls (arbitrary units); higher = stronger morphological change
[9] = tested on: E21; experiment: as above
[10] = tested on: E28; experiment: as above
[11] = tested on: E31; experiment: as above
[12] = tested on: E34; experiment: as above
[13] = tested on: E57; experiment: as above
[14] = tested on: FT3469; experiment: as above
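Throughout, for phenotypic distance (Euclidean, principal components) from DMSO controls: cell Painting imaging in 384-well plates, CellProfiler features reduced to at least 20 principal components, Euclidean distance versus same-plate DMSO vehicle wells (0.1% v/v), median over six images per well.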
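Throughout, for surviving fraction (nuclei count normalised to DMSO): nuclei counted by high-content imaging of Hoechst-stained cells in laminin-coated 384-well plates, relative to 0.1% DMSO vehicle wells, with staurosporine as cell-death control.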

CCC1=C[C@@H]2CN(C1)Cc1c([nH]c3ccccc13)[C@@](C(=O)OC)(c1cc3c(cc1OC)N(C)[C@H]1[C@@](O)(C(=O)OC)[C@H](OC(C)=O)[C@]4(CC)C=CCN5CC[C@]31[C@@H]54)C2 [Vinorelbine Tartrate]
Conditions | phenotypic distance | surviving fraction
[1], 4.1 nM | – | 0.863
[1], 12.3 nM | – | 0.903
[1], 37 nM | – | 0.916
[1], 111.1 nM | – | 0.907
[1], 333.3 nM | – | 0.82
[1], 1000 nM | – | 0.371
[1], 3000 nM | – | 0.246
[2], 4.1 nM | – | 0.868
[2], 12.3 nM | – | 0.894
[2], 37 nM | – | 0.926
[2], 111.1 nM | – | 0.761
[2], 333.3 nM | – | 0.586
[2], 1000 nM | – | 0.169
[2], 3000 nM | – | 0.1
[3], 4.1 nM | – | 0.904
[3], 12.3 nM | – | 0.815
[3], 37 nM | – | 0.801
[3], 111.1 nM | – | 0.749
[3], 333.3 nM | – | 0.609
[3], 1000 nM | – | 0.375
[3], 3000 nM | – | 0.353
[4], 4.1 nM | – | 0.794
[4], 12.3 nM | – | 0.911
[4], 37 nM | – | 0.749
[4], 111.1 nM | – | 0.649
[4], 333.3 nM | – | 0.37
[4], 1000 nM | – | 0.126
[4], 3000 nM | – | 0.0917
[5], 4.1 nM | – | 1.05
[5], 12.3 nM | – | 0.954
[5], 37 nM | – | 0.856
[5], 111.1 nM | – | 0.97
[5], 333.3 nM | – | 0.822
[5], 1000 nM | – | 0.57
[5], 3000 nM | – | 0.402
[6], 4.1 nM | – | 0.969
[6], 12.3 nM | – | 1.04
[6], 37 nM | – | 1.04
[6], 111.1 nM | – | 1.02
[6], 333.3 nM | – | 0.899
[6], 1000 nM | – | 0.447
[6], 3000 nM | – | 0.102
[7], 4.1 nM | – | 0.953
[7], 12.3 nM | – | 0.829
[7], 37 nM | – | 0.834
[7], 111.1 nM | – | 0.827
[7], 333.3 nM | – | 0.569
[7], 1000 nM | – | 0.553
[7], 3000 nM | – | 0.56
[8], 4.1 nM | 1.1 | –
[8], 12.3 nM | 1.18 | –
[8], 37 nM | 1.26 | –
[8], 111.1 nM | 1.7 | –
[8], 333.3 nM | 2.71 | –
[8], 1000 nM | 4.6 | –
[8], 3000 nM | 6.33 | –
[9], 4.1 nM | 1.06 | –
[9], 12.3 nM | 1.08 | –
[9], 37 nM | 1.45 | –
[9], 111.1 nM | 2.33 | –
[9], 333.3 nM | 4.36 | –
[9], 1000 nM | 7 | –
[9], 3000 nM | 8.49 | –
[10], 4.1 nM | 0.584 | –
[10], 12.3 nM | 0.83 | –
[10], 37 nM | 0.727 | –
[10], 111.1 nM | 1.31 | –
[10], 333.3 nM | 2.18 | –
[10], 1000 nM | 2.7 | –
[10], 3000 nM | 3.22 | –
[11], 4.1 nM | 0.666 | –
[11], 12.3 nM | 0.627 | –
[11], 37 nM | 0.856 | –
[11], 111.1 nM | 1.44 | –
[11], 333.3 nM | 3.01 | –
[11], 1000 nM | 4.58 | –
[11], 3000 nM | 5.73 | –
[12], 4.1 nM | 0.476 | –
[12], 12.3 nM | 0.944 | –
[12], 37 nM | 0.78 | –
[12], 111.1 nM | 1.01 | –
[12], 333.3 nM | 1.48 | –
[12], 1000 nM | 2.84 | –
[12], 3000 nM | 4.02 | –
[13], 4.1 nM | 0.512 | –
[13], 12.3 nM | 0.688 | –
[13], 37 nM | 0.822 | –
[13], 111.1 nM | 0.746 | –
[13], 333.3 nM | 3.9 | –
[13], 1000 nM | 4.81 | –
[13], 3000 nM | 6.16 | –
[14], 4.1 nM | 0.854 | –
[14], 12.3 nM | 1.01 | –
[14], 37 nM | 1.01 | –
[14], 111.1 nM | 1.12 | –
[14], 333.3 nM | 2.43 | –
[14], 1000 nM | 4.88 | –
[14], 3000 nM | 3.13 | –

CC(C)(C)C1CCN(C(=O)n2ncc(C(O)(c3ccccc3)c3ccccc3)n2)CC1 [ML211]
Conditions | phenotypic distance | surviving fraction
[1], 4.1 nM | – | 0.909
[1], 12.3 nM | – | 0.883
[1], 37 nM | – | 0.918
[1], 111.1 nM | – | 0.985
[1], 333.3 nM | – | 0.984
[1], 1000 nM | – | 0.975
[1], 3000 nM | – | 0.916
[2], 4.1 nM | – | 0.93
[2], 12.3 nM | – | 0.888
[2], 37 nM | – | 0.946
[2], 111.1 nM | – | 0.8973
[2], 333.3 nM | – | 0.973
[2], 1000 nM | – | 0.9031
[2], 3000 nM | – | 0.889
[3], 4.1 nM | – | 1.09
[3], 12.3 nM | – | 1
[3], 37 nM | – | 1
[3], 111.1 nM | – | 1
[3], 333.3 nM | – | 0.987
[3], 1000 nM | – | 0.9874
[3], 3000 nM | – | 0.883
[4], 4.1 nM | – | 0.9689
[4], 12.3 nM | – | 0.979
[4], 37 nM | – | 0.993
[4], 111.1 nM | – | 0.928
[4], 333.3 nM | – | 1.04
[4], 1000 nM | – | 0.973
[4], 3000 nM | – | 0.823
[5], 4.1 nM | – | 0.956
[5], 12.3 nM | – | 0.941
[5], 37 nM | – | 0.95
[5], 111.1 nM | – | 0.868
[5], 333.3 nM | – | 0.976
[5], 1000 nM | – | 0.965
[5], 3000 nM | – | 0.8932
[6], 4.1 nM | – | 0.995
[6], 12.3 nM | – | 1
[6], 37 nM | – | 0.9744
[6], 111.1 nM | – | 1.02
[6], 333.3 nM | – | 0.964
[6], 1000 nM | – | 0.974
[6], 3000 nM | – | 0.894
[7], 4.1 nM | – | 0.879
[7], 12.3 nM | – | 1.008
[7], 37 nM | – | 0.989
[7], 111.1 nM | – | 0.934
[7], 333.3 nM | – | 0.885
[7], 1000 nM | – | 0.816
[7], 3000 nM | – | 0.817
[8], 4.1 nM | 0.844 | –
[8], 12.3 nM | 0.731 | –
[8], 37 nM | 0.757 | –
[8], 111.1 nM | 0.461 | –
[8], 333.3 nM | 0.703 | –
[8], 1000 nM | 0.699 | –
[8], 3000 nM | 0.911 | –
[9], 4.1 nM | 0.863 | –
[9], 12.3 nM | 0.923 | –
[9], 37 nM | 0.671 | –
[9], 111.1 nM | 0.652 | –
[9], 333.3 nM | 0.683 | –
[9], 1000 nM | 0.885 | –
[9], 3000 nM | 0.961 | –
[10], 4.1 nM | 0.935 | –
[10], 12.3 nM | 0.886 | –
[10], 37 nM | 0.733 | –
[10], 111.1 nM | 0.678 | –
[10], 333.3 nM | 0.596 | –
[10], 1000 nM | 0.668 | –
[10], 3000 nM | 1.42 | –
[11], 4.1 nM | 0.563 | –
[11], 12.3 nM | 0.567 | –
[11], 37 nM | 0.644 | –
[11], 111.1 nM | 0.641 | –
[11], 333.3 nM | 1.05 | –
[11], 1000 nM | 0.871 | –
[11], 3000 nM | 1.12 | –
[12], 4.1 nM | 1.21 | –
[12], 12.3 nM | 0.912 | –
[12], 37 nM | 1.05 | –
[12], 111.1 nM | 0.782 | –
[12], 333.3 nM | 0.763 | –
[12], 1000 nM | 0.734 | –
[12], 3000 nM | 0.728 | –
[13], 4.1 nM | 0.588 | –
[13], 12.3 nM | 0.447 | –
[13], 37 nM | 0.552 | –
[13], 111.1 nM | 0.483 | –
[13], 333.3 nM | 0.642 | –
[13], 1000 nM | 0.6 | –
[13], 3000 nM | 0.835 | –
[14], 4.1 nM | 1.1 | –
[14], 12.3 nM | 0.699 | –
[14], 37 nM | 0.637 | –
[14], 111.1 nM | 0.748 | –
[14], 333.3 nM | 0.841 | –
[14], 1000 nM | 1.25 | –
[14], 3000 nM | 1.74 | –
